Measurements taken from PubChem BioAssay AID1918945 (Molecular Pharmacology Branch, DTP, NCI, 2023).
Several values for one entry are separate records, joined by “and”; a condition that tells them apart may be missing. Equal values may be shown once.

Tested on: 883617-216-R-J1-PDC complex spheroid viability
Assay: Anticancer human tumor 883617-216-R-J1-PDC patient-derived bladder carcinoma cell line growth inhibition
Settings: for viability, T/C: stronger effect = lower value
From the text: Multicellular complex tumor spheroid response to LSD1 Inhibitor Iadademstat in combination with a variety of drugs and investigational agents in selected tumor cell lines
The current study was undertaken to assess response to LSD1 inhibitors in combination with standard-of-care drugs and investigational agents in solid tumor complex spheroid models as well as in the K-562 leukemia. Complex spheroids include a stromal component modeled by human endothelial cells (HUVEC) and fibroblasts modeled by human mesenchymal stem cells (MSCs). The concentration ranges selected for each drug and investigational agent were based upon clinically achievable concentrations if the clinical Cmax of the agent was known.
Compounds. The drugs and investigational agents used in this study are listed on Table 1. All of the agents used, including staurosporine (NSC755774) and gemcitabine (NSC613327), were obtained from the Developmental Therapeutics Program, NCI. FDA-approved anticancer drugs are available from the NCI at http://dtp.nci.nih.gov/branches/dscb/oncology_drugset_explanation.html. Drugs and investigational agents were >95% pure by proton nuclear magnetic resonance (NMR) and liquid chromatography/mass spectrometry (LC/MS). Stock solutions were prepared at 400x in DMSO, stored at -70 degrees C, and diluted in fresh medium prior to their use. The final concentration of DMSO in cell culture wells never exceeded 0.25% (v/v). The FDA-approved anticancer drug set is available from the Developmental Therapeutics Program at https://dtp.cancer.gov/organization/dscb/obtaining/available_plates.htm. All drugs and investigational agents were tested over a range starting from a high concentration at or near the clinical Cmax and decreasing in half-log increments. If the clinical Cmax for an agent had not been determined, the highest concentration tested was 10 microM.
Cell Lines. The patient-derived cancer cell (PDC) lines: 292921-168-R-J2-PDC, K24384-001-R-PDC, and 521955-158-R2-J5-PDC pancreatic carcinomas, 556581-035-R-J1 ovarian carcinoma, 324938-238-R-J1-PDC, 855422-203-R-J1-PDC and 883617-216-R-J1-PDC urothelial bladder carcinomas, 743489-274-T-PDC renal cell carcinoma, 138582-R-J1 Merkel cell tumor, K60290-347-R-J1 and K57222-313-R-J1-PDC glioblastomas, 653999-131-R-J2-PDC, LG0703-F948-PDC, and 349418-098-R-PDC non-small cell lung carcinomas, 885512-296-R-J2-PDC, 171881-019-R-J1-PDC breast carcinomas and 186277-243-T-J2-PDC and 233499-124-R-J2-PDC colon carcinomas were obtained from the NCI Patient-Derived Models Repository (PDMR, https://pdmr.cancer.gov). The established cell lines NCI/ADR-RES (RRID:CVCL_14520 and OVCAR-5 (RRID:CVCL_1628) ovarian carcinomas, 786-O (RRID:CVCL_1051) and A498 (RRID:CVCL_A498) renal cell carcinoma, NCI-H211 (ATCC, cat. CRL-5824; RRID:CVCL_1529), NCI-H196 (ATCC, cat. CRL-5823, RRID:CVCL_1509), SW 1271 (ATCC, cat. CRL-2177, RRID:CVCL_1716) and NCI-H1876 (ATCC, cat. CRL-5902, RRID:CVCL_1503) small cell lung carcinomas, MDA-MB-231 (RRID:CVCL_0062) and MDA-MB-468 (RRID:CVCL_0419)breast carcinomas (10-12). Pooled donor human umbilical vein endothelial cells (HUVEC, Lonza, cat. CC-2519) and human mesenchymal stem cells (hMSC, Lonza, cat. PT-2501) were purchased from Lonza (Walkersville, MD).
Cell Culture. All cells were maintained in an incubator at 37 degrees C and 5% CO2 with 95% humidity. The PDC lines were cultured according to standard operating procedures established by the NCI PDMR (https://pdmr.cancer.gov). Briefly all PDCs were thawed and cultured in Matrigel-coated flasks prepared with a working solution of 1X Ham's F-12 nutrient mix, without supplementation (Invitrogen, Waltham, MA, cat. 11765054), 100 U/mL penicillin-streptomycin (Invitrogen, cat. 15140122), and 2.5% Matrigel (Corning Inc., Corning, NY, cat. 354248) for the first three passages. […]

[1] = curve of first compound, second compound 0.1 µM
[2] = curve of first compound, second compound 0.316 µM
[3] = curve of first compound, second compound 1 µM
[4] = curve of first compound, second compound 3.16 µM
[5] = curve of first compound, second compound 10 µM
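Further: exposure lasted seven days after three days of spheroid growth.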
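Wherever viability, T/C is given: 100% = DMSO vehicle control luminescence.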

Compound: NS(=O)(=O)OCC1CC(n2ccc3c(NC4CCc5ccccc54)ncnc32)CC1O (configuration not stated) + NC1CCC(NC2CC2c2ccccc2)CC1
- IC50 [1]: 399 nM
- IC50 [2]: 497 nM
- IC50 [3]: 453 nM
- IC50 [4]: 500 nM
- IC50 [5]: 392 nM
- viability, T/C (second compound 0.1 µM, first compound 0.00949 µM): 111%
- viability, T/C (second compound 0.1 µM, first compound 0.03 µM): 121%
- viability, T/C (second compound 0.1 µM, first compound 0.0949 µM): 106%
- viability, T/C (second compound 0.1 µM, first compound 0.3 µM): 59.8%
- viability, T/C (second compound 0.1 µM, first compound 0.949 µM): 20.7%
- viability, T/C (second compound 0.1 µM, first compound 3 µM): 15.2%
- viability, T/C (second compound 0.316 µM, first compound 0.00949 µM): 118%
- viability, T/C (second compound 0.316 µM, first compound 0.03 µM): 113%
- viability, T/C (second compound 0.316 µM, first compound 0.0949 µM): 113%
- viability, T/C (second compound 0.316 µM, first compound 0.3 µM): 73.8%
- viability, T/C (second compound 0.316 µM, first compound 0.949 µM): 19.4%
- viability, T/C (second compound 0.316 µM, first compound 3 µM): 15.6%
- viability, T/C (second compound 1 µM, first compound 0.00949 µM): 102%
- viability, T/C (second compound 1 µM, first compound 0.03 µM): 116%
- viability, T/C (second compound 1 µM, first compound 0.0949 µM): 105%
- viability, T/C (second compound 1 µM, first compound 0.3 µM): 67%
- viability, T/C (second compound 1 µM, first compound 0.949 µM): 19.5%
- viability, T/C (second compound 1 µM, first compound 3 µM): 14%
- viability, T/C (second compound 3.16 µM, first compound 0.00949 µM): 101%
- viability, T/C (second compound 3.16 µM, first compound 0.03 µM): 106%
- viability, T/C (second compound 3.16 µM, first compound 0.0949 µM): 99.5%
- viability, T/C (second compound 3.16 µM, first compound 0.3 µM): 73.8%
- viability, T/C (second compound 3.16 µM, first compound 0.949 µM): 20.2%
- viability, T/C (second compound 3.16 µM, first compound 3 µM): 13.7%
- viability, T/C (second compound 10 µM, first compound 0.00949 µM): 113%
- viability, T/C (second compound 10 µM, first compound 0.03 µM): 117%
- viability, T/C (second compound 10 µM, first compound 0.0949 µM): 107%
- viability, T/C (second compound 10 µM, first compound 0.3 µM): 58.9%
- viability, T/C (second compound 10 µM, first compound 0.949 µM): 20.8%
- viability, T/C (second compound 10 µM, first compound 3 µM): 14.6%

Compound: CC(C)CC(NC(=O)CNC(=O)c1cc(Cl)ccc1Cl)B1OC(=O)CC(CC(=O)O)(C(=O)O)O1 (configuration not stated)
- viability, T/C (compound 0.000316 µM): 101% and 95.7%
- viability, T/C (compound 0.001 µM): 106% and 87%
- viability, T/C (compound 0.00316 µM): 85% and 52.1%
- viability, T/C (compound 0.01 µM): 39.5% and 23.1%
- viability, T/C (compound 0.0316 µM): 15.8% and 1.76%
- viability, T/C (compound 0.1 µM): 2.31% and 0.36%
- IC50 (curve of compound): 7.91 nM and 3.68 nM

Compound: CC(C)CC(NC(=O)CNC(=O)c1cc(Cl)ccc1Cl)B1OC(=O)CC(CC(=O)O)(C(=O)O)O1 (configuration not stated) + NC1CCC(NC2CC2c2ccccc2)CC1
- IC50 [1]: 6.36 nM
- IC50 [2]: 7.23 nM
- IC50 [3]: 6.46 nM
- IC50 [4]: 6.58 nM
- IC50 [5]: 6.38 nM
- viability, T/C (second compound 0.1 µM, first compound 0.000316 µM): 101%
- viability, T/C (second compound 0.1 µM, first compound 0.001 µM): 112%
- viability, T/C (second compound 0.1 µM, first compound 0.00316 µM): 74.7%
- viability, T/C (second compound 0.1 µM, first compound 0.01 µM): 32.5%
- viability, T/C (second compound 0.1 µM, first compound 0.0316 µM): 11.9%
- viability, T/C (second compound 0.1 µM, first compound 0.1 µM): 1.23%
- viability, T/C (second compound 0.316 µM, first compound 0.000316 µM): 108%
- viability, T/C (second compound 0.316 µM, first compound 0.001 µM): 110%
- viability, T/C (second compound 0.316 µM, first compound 0.00316 µM): 86.4%
- viability, T/C (second compound 0.316 µM, first compound 0.01 µM): 34.8%
- viability, T/C (second compound 0.316 µM, first compound 0.0316 µM): 11.1%
- viability, T/C (second compound 0.316 µM, first compound 0.1 µM): 0.94%
- viability, T/C (second compound 1 µM, first compound 0.000316 µM): 101%
- viability, T/C (second compound 1 µM, first compound 0.001 µM): 107%
- viability, T/C (second compound 1 µM, first compound 0.00316 µM): 83%
- viability, T/C (second compound 1 µM, first compound 0.01 µM): 29%
- viability, T/C (second compound 1 µM, first compound 0.0316 µM): 10.3%
- viability, T/C (second compound 1 µM, first compound 0.1 µM): 0.98%
- viability, T/C (second compound 3.16 µM, first compound 0.000316 µM): 101%
- viability, T/C (second compound 3.16 µM, first compound 0.001 µM): 108%
- viability, T/C (second compound 3.16 µM, first compound 0.00316 µM): 75.8%
- viability, T/C (second compound 3.16 µM, first compound 0.01 µM): 34.5%
- viability, T/C (second compound 3.16 µM, first compound 0.0316 µM): 9.37%
- viability, T/C (second compound 3.16 µM, first compound 0.1 µM): 1.62%
- viability, T/C (second compound 10 µM, first compound 0.000316 µM): 111%
- viability, T/C (second compound 10 µM, first compound 0.001 µM): 106%
- viability, T/C (second compound 10 µM, first compound 0.00316 µM): 79%
- viability, T/C (second compound 10 µM, first compound 0.01 µM): 31.8%
- viability, T/C (second compound 10 µM, first compound 0.0316 µM): 4.25%
- viability, T/C (second compound 10 µM, first compound 0.1 µM): 0.93%
